Experimental data: patent EP0373216A1, “CEPHALOSPORIN COMPOUNDS OR THEIR SALTS, PROCESS FOR THEIR PREPARATION, AND PARMACEUTICAL COMPOSITIONS” (TEIJIN LIMITED, priority 1987, dated 1988)
Values after ≈ are worked out from the molar mass of the structure shown. Where two headings read alike, the source gives them in different places.

Legend:
Assay in all cases: In vitro antibacterial activity, agar disc dilution method
Assay type in all cases: cell-based
S. aureus Terajima = settings: Staphylococcus aureus, read-out: minimum growth inhibitory concentration (MIC)
Method: (§1) An in vitro antibacterial activity was measured by an agar disc dilution method.
(§2) Varied test bacteria were cultivated overnight in triptophane-soybroth. A Mueller Hinton agar containing the compound of this invention in varied concentrations was streaked with one platinum loopful of each of the bacteria (number of living cells 10^6/ml).

S. enteritidis G14 = settings: Salmonella enterica, read-out: minimum growth inhibitory concentration (MIC)
Method: as §1, §2

P. aeruginosa NCTC 1049 = settings: Pseudomonas aeruginosa, read-out: minimum growth inhibitory concentration (MIC)
Method: as §1, §2

K. pneumoniae PC I 602 = settings: Klebsiella pneumoniae, read-out: minimum growth inhibitory concentration (MIC)
Method: as §1, §2

P. vulgalis OX-19 = settings: read-out: minimum growth inhibitory concentration (MIC)
Method: as §1, §2

P. rettgeric IFO3850 = settings: read-out: minimum growth inhibitory concentration (MIC)
Method: as §1, §2

S. marcescens I AM 1184 = settings: Serratia marcescens, read-out: minimum growth inhibitory concentration (MIC)
Method: as §1, §2

S. pyogenes Cook = settings: Streptococcus pyogenes, read-out: minimum growth inhibitory concentration (MIC)
Method: as §1, §2

E. cloacae 963 = settings: read-out: minimum growth inhibitory concentration (MIC)
Method: as §1, §2

S. typhic 901 = settings: Mueller Hinton agar, 10^6/ml, 37°C for 16 hours, read-out: minimum growth inhibitory concentration (MIC)
Method: as §1, §2

P. morganii IFO 3445 = settings: Morganella morganii, read-out: minimum growth inhibitory concentration (MIC)
Method: as §1, §2

E. coli K12C600 = settings: Escherichia coli, read-out: minimum growth inhibitory concentration (MIC)
Method: as §1, §2

B. subtilis ATCC 6633 = settings: Bacillus subtilis, read-out: minimum growth inhibitory concentration (MIC)
Method: as §1, §2

M. euteus ATCC 9341 = settings: read-out: minimum growth inhibitory concentration (MIC)
Method: as §1, §2

[1] = S. aureus Terajima, Mueller Hinton agar, 10^6/ml, 37°C for 16 hours
[2] = S. enteritidis G14, Mueller Hinton agar, 10^6/ml, 37°C for 16 hours
[3] = NCTC1049, P. aeruginosa NCTC 1049, Mueller Hinton agar, 10^6/ml, 37°C for 16 hours
[4] = PCI602, K. pneumoniae PC I 602, Mueller Hinton agar, 10^6/ml, 37°C for 16 hours
[5] = P. vulgalis OX-19, Mueller Hinton agar, 10^6/ml, 37°C for 16 hours
[6] = P. rettgeric IFO3850, Mueller Hinton agar, 10^6/ml, 37°C for 16 hours
[7] = IAM1184, S. marcescens I AM 1184, Mueller Hinton agar, 10^6/ml, 37°C for 16 hours
[8] = S. pyogenes Cook, Mueller Hinton agar, 10^6/ml, 37°C for 16 hours
[9] = Enterobacter cloacae, E. cloacae 963, Mueller Hinton agar, 10^6/ml, 37°C for 16 hours
[10] = IFO3445, P. morganii IFO 3445, Mueller Hinton agar, 10^6/ml, 37°C for 16 hours
[11] = E. coli K12C600, Mueller Hinton agar, 10^6/ml, 37°C for 16 hours
[12] = ATCC6633, B. subtilis ATCC 6633, Mueller Hinton agar, 10^6/ml, 37°C for 16 hours
[13] = M. euteus ATCC 9341, Mueller Hinton agar, 10^6/ml, 37°C for 16 hours

| Structure (SMILES) | MIC (S. aureus Terajima; [1]) | MIC (S. enteritidis G14; [2]) | MIC (P. aeruginosa NCTC 1049; [3]) | MIC (K. pneumoniae PC I 602; [4]) | MIC (P. vulgalis OX-19; [5]) | MIC (P. rettgeric IFO3850; [6]) | MIC (S. marcescens I AM 1184; [7]) | MIC (S. pyogenes Cook; [8]) | MIC (E. cloacae 963; [9]) | MIC (S. typhic 901) | MIC (P. morganii IFO 3445; [10]) | MIC (E. coli K12C600; [11]) | MIC (B. subtilis ATCC 6633; [12]) | MIC (M. euteus ATCC 9341; [13]) | other results |
| --- | --- | --- | --- | --- | --- | --- | --- | --- | --- | --- | --- | --- | --- | --- | --- |
| Nc1nc(/C(=N/Oc2ccccc2Cl)C(=O)N[C@@H]2C(=O)N3C(C(=O)[O-])=C(C[n+]4ccc5cc(O)c(O)cc5c4)CS[C@H]23)cs1 [Compound II, (6R,7R)-7-[(Z)-2-(2-amino-1,3-thiazol-4-yl)-2-(o-chlorophenoxyimino)-acetamide]-3-(6,7-dihydroxy-2-isoquinolinium)methyl-3-cephem-4-carboxylate] | 0.2 µg/mL (≈ 0.306 µM) | < 0.01 µg/mL | 0.8 µg/mL (≈ 1.22 µM) | < 0.01 µg/mL | < 0.01 µg/mL | < 0.01 µg/mL | < 0.01 µg/mL | 0.2 µg/mL (≈ 0.306 µM) | < 0.01 µg/mL | < 0.01 µg/mL | < 0.01 µg/mL | < 0.01 µg/mL | 1.6 µg/mL (≈ 2.45 µM) | 0.8 µg/mL (≈ 1.22 µM) | – |
| Nc1nc(/C(=N/Oc2cccc(C(=O)O)c2)C(=O)N[C@@H]2C(=O)N3C(C(=O)[O-])=C(C[n+]4ccc5cc(O)c(O)cc5c4)CS[C@H]23)cs1 [Compound VIII] | 3.1 µg/mL (≈ 4.68 µM) | 0.03 µg/mL (≈ 0.0453 µM) | 0.2 µg/mL (≈ 0.302 µM) | 0.03 µg/mL (≈ 0.0453 µM) | 0.02 µg/mL (≈ 0.0302 µM) | 0.02 µg/mL (≈ 0.0302 µM) | 0.1 µg/mL (≈ 0.151 µM) | 0.8 µg/mL (≈ 1.21 µM) | 0.1 µg/mL (≈ 0.151 µM) | 0.03 µg/mL (≈ 0.0453 µM) | 0.03 µg/mL (≈ 0.0453 µM) | 0.05 µg/mL (≈ 0.0755 µM) | 0.3 µg/mL (≈ 0.453 µM) | 1.6 µg/mL (≈ 2.41 µM) | – |
| Nc1nc(/C(=N/Oc2ccccc2)C(=O)N[C@@H]2C(=O)N3C(C(=O)[O-])=C(C[n+]4ccc5cc(O)c(O)cc5c4)CS[C@H]23)cs1 [Compound I, (6R,7R)-7-[(Z)-2-(2-amino-1,3-thiazol-4-yl)-2-phenoxy-iminoacetamide]-3-(6,7-dihydroxy-2-isoquinolinium)methyl-3-cephem-4-carboxylate] | 0.8 µg/mL (≈ 1.29 µM) | < 0.01 µg/mL | 0.1 µg/mL (≈ 0.162 µM) | < 0.01 µg/mL | < 0.01 µg/mL | < 0.01 µg/mL | < 0.01 µg/mL | 0.2 µg/mL (≈ 0.323 µM) | < 0.01 µg/mL | < 0.01 µg/mL | < 0.01 µg/mL | < 0.01 µg/mL | 0.1 µg/mL (≈ 0.162 µM) | 0.1 µg/mL (≈ 0.162 µM) | – |
| CC(C)(O/N=C(\C(=O)N[C@@H]1C(=O)N2C(C(=O)[O-])=C(C[n+]3ccccc3)CS[C@H]12)c1csc(N)n1)C(=O)O [CAZ, Ceftazidime, reference compound] | – | – | – | – | – | – | – | – | – | 0.1 µg/mL (≈ 0.183 µM) | – | – | – | – | MIC (S. aureus Terajima; 16 h): 3.1 µg/mL (≈ 5.67 µM); MIC (S. enteritidis G14; ENTERITIDIS, 16 h): 0.1 µg/mL (≈ 0.183 µM); MIC (P. aeruginosa NCTC 1049; NCTC1049, 16 h): 0.8 µg/mL (≈ 1.46 µM); MIC (K. pneumoniae PC I 602; PCI602, 16 h): 0.1 µg/mL (≈ 0.183 µM); MIC (P. vulgalis OX-19; 16 h): 0.01 µg/mL (≈ 0.0183 µM); MIC (P. rettgeric IFO3850; 16 h): 0.01 µg/mL (≈ 0.0183 µM); MIC (S. marcescens I AM 1184; IAM1184, 16 h): 0.03 µg/mL (≈ 0.0549 µM); MIC (S. pyogenes Cook; 16 h): 1.6 µg/mL (≈ 2.93 µM); MIC (E. cloacae 963; Enterobacter cloacae, 963, 16 h): 0.1 µg/mL (≈ 0.183 µM); MIC (P. morganii IFO 3445; IFO3445, 16 h): 0.01 µg/mL (≈ 0.0183 µM); MIC (E. coli K12C600; K12C600, 16 h): 0.2 µg/mL (≈ 0.366 µM); MIC (B. subtilis ATCC 6633; ATCC6633, 16 h): 3.1 µg/mL (≈ 5.67 µM); MIC (M. euteus ATCC 9341; 16 h): 1.6 µg/mL (≈ 2.93 µM) |
| Nc1nc(/C(=N/Oc2ccccc2)C(=O)N[C@@H]2C(=O)N3C(C(=O)[O-])=C(C[n+]4cc(C(=O)O)c5cc(O)c(O)cc5c4)CS[C@H]23)cs1 [Compound VI, (6R,7R)-7-[(Z)-2-(2-amino-1,3-thiazol-4-yl)-2-phenoxyiminoacetamide]-3-(4-carboxy-6,7-dihydroxy-2-isoquinolinium)methyl-3-cephem-4-carboxylate] | 3.1 µg/mL (≈ 4.68 µM) | < 0.01 µg/mL | 3.1 µg/mL (≈ 4.68 µM) | 0.02 µg/mL (≈ 0.0302 µM) | < 0.01 µg/mL | 0.02 µg/mL (≈ 0.0302 µM) | < 0.01 µg/mL | 0.8 µg/mL (≈ 1.21 µM) | 0.05 µg/mL (≈ 0.0755 µM) | < 0.01 µg/mL | 0.02 µg/mL (≈ 0.0302 µM) | 0.02 µg/mL (≈ 0.0302 µM) | 1.6 µg/mL (≈ 2.41 µM) | 0.8 µg/mL (≈ 1.21 µM) | – |
